Read-outs that look alike come from different tables or passages of the source.
Experiments:
[1] = system: IAV; design: species or system Influenza A Virus; conditions: in vivo
[2] = system: H1N1; design: species or system influenza A virus H1N1; conditions: in vivo
[3] = system: H5N1; design: species or system influenza A virus H5N1; conditions: in vivo
[4] = system: H1N1 WSN (A/WSN/33); design: species or system influenza A virus H1N1; conditions: in vivo; for activities of the infected mice / body temperature drop / body weight drop / discomfort caused by influenza / mice died / mice in group / mortality of mice caused by H1N1 WSN infection: ip, 20 mg/kg/day
[5] = system: H1N1 WSN (A/WSN/33); experiment: H1N1 WSN-infected mice: lung index; format: in vivo, influenza A virus H1N1; conditions: DPI 8; for lung injury index of mice caused by H1N1 WSN infection: 20 mg/kg/d i.p. from Day 4, vs high toxicity group, P<0.05
[6] = system: H1N1 WSN (A/WSN/33); experiment: H1N1 WSN-infected mice: pathological section of lung tissue (HE); format: in vivo, influenza A virus H1N1; conditions: DPI 8; 20 mg/kg/d i.p. from Day 4
[7] = system: H1N1 WSN (A/WSN/33); experiment: H1N1 WSN-infected mice: pulmonary vascular permeability test (Evans Blue); format: in vivo, influenza A virus H1N1; conditions: DPI 8; 20 mg/kg/d i.p. from Day 4; vs high toxicity group; Tamiflu P<0.05, CBD P<0.01
[8] = system: H1N1 WSN (A/WSN/33); experiment: H1N1 WSN-infected mice: inflammatory cells in alveolar lavage fluid (Diff-Quick staining); format: in vivo, influenza A virus H1N1; conditions: DPI 8, 20 mg/kg/d; for number of macrophages in the alveolar lavage fluid: Tamiflu P<0.01, CBD P<0.001
[9] = system: H1N1 WSN; format: cell-based, influenza A virus H1N1; conditions: 24 h
[10] = system: H1N1 WSN; format: cell-based, influenza A virus H1N1; conditions: 24 h; remark: listed apart in the source
[11] = system: H5N1 A/great black-headed gull/Qinghai/2009 (H5N1); design: species or system influenza A virus H5N1; conditions: in vivo, 20 mg/kg/day
[12] = system: H5N1; format: cell-based, influenza A virus H5N1; conditions: 1 μM; 24 h
[13] = oral and systemic use; cited from earlier work
[14] = mouse, in vivo; cited from earlier work
[15] = of the 119 deaths; cited from earlier work

## C=C(C)[C@@H]1CCC(C)=C[C@H]1c1c(O)cc(CCCCC)cc1O [CBD, Cannabidiol]
[1]; 20 mg/kg/day
  mortality of mice caused by IAV infection: significantly inhibited
[1]; 60 mg/kg/day
  mortality of mice caused by IAV infection: significantly inhibited
[2]
  mortality in mice caused by IAV infection: inhibited the same mortality
[3]
  mortality in mice caused by IAV infection: inhibited the same mortality
[4]
  mortality, CBD group compared with Tamiflu group: no significant difference
  activities of the infected mice: significantly increased
  body temperature drop: significantly inhibited
  body weight drop: significantly inhibited
  discomfort caused by influenza: significantly alleviated
  mice died / mice in group: 10/20
  mortality of mice caused by H1N1 WSN infection: significantly reduced
[5]
  lung injury index of mice caused by H1N1 WSN infection: significantly reduced
[5]; both 20 mg/kg/d
  lung index, CBD group compared with Tamiflu group: no significant difference
[6]
  inflammatory cell infiltration (lung pathology): significantly reduced
[7]
  mouse pulmonary capillary permeability caused by H1N1 WSN infection: significantly reduced
[8]
  number of neutrophils in the alveolar lavage fluid, compared with the Tamiflu group: very significant reduction
  number of macrophages in the alveolar lavage fluid: significantly reduced
[8]; P<0.05
  number of macrophages in the alveolar lavage fluid, compared with the Tamiflu group: significant reduction
[8]; vs IAV treatment group, P<0.01
  number of lymphocytes in the alveolar lavage fluid: significantly reduced
[8]; vs high toxicity treatment group, P<0.001
  number of neutrophils in the alveolar lavage fluid: significantly reduced
[9]; 5 μM
  expression of PA gene in H1N1 WSN: significantly reduced
  expression of PB1 gene in H1N1 WSN: significantly reduced
[10]; 5 μM
  expression of NP gene in H1N1 WSN: significantly reduced
  expression of PA gene in H1N1 WSN: significantly reduced
  expression of PB1 gene in H1N1 WSN: significantly reduced
  expression of PB2 gene in H1N1 WSN: significantly reduced
[11]
  activities of the infected mice: significantly increased
  discomfort caused by influenza: significantly alleviated
  mortality (mice died / mice in group): 10/10
  mortality compared with the influenza group: no significant difference
  survival time of mice after H5N1 infection prolonged by: 24 h
[11]; ip
  body temperature drop: significantly inhibited
  body weight drop caused by H5N1: Significantly Inhibited
[12]
  expression of NP gene in H5N1: significantly reduced
  expression of PA gene in H5N1: significantly reduced
  expression of PB1 gene in H5N1: significantly reduced
  expression of PB2 gene in H5N1: significantly reduced
[13]
  severity of joint damage and the acute and chronic courses of arthritis: significantly reduce
[14]
  LPS-induced acute lung injury: inhibits

## CCOC(=O)C1=C[C@@H](OC(CC)CC)[C@H](NC(C)=O)[C@@H](N)C1 [Tamiflu, oseltamivir, reference compound]
[1]; 20 mg/kg/day
  mortality of mice caused by IAV infection: significantly inhibited
[4]
  activities of the infected mice: significantly increased
  body temperature drop: significantly inhibited
  body weight drop: significantly inhibited
  discomfort caused by influenza: significantly alleviated
  mice died / mice in group: 9/20
  mortality of mice caused by H1N1 WSN infection: significantly reduced
[5]
  lung injury index of mice caused by H1N1 WSN infection: significantly reduced
[6]
  inflammatory cell infiltration (lung pathology): significantly reduced
[7]
  mouse pulmonary capillary permeability caused by H1N1 WSN infection: significantly reduced
[8]
  number of macrophages in the alveolar lavage fluid: significantly reduced
[9]; 10 μM
  expression of PA gene in H1N1 WSN: no significant inhibitory effect
  expression of PB1 gene in H1N1 WSN: no significant inhibitory effect
[10]; 10 μM
  expression of NP gene in H1N1 WSN: no significant inhibitory effect
  expression of PA gene in H1N1 WSN: no significant inhibitory effect
  expression of PB1 gene in H1N1 WSN: no significant inhibitory effect
  expression of PB2 gene in H1N1 WSN: no significant inhibitory effect
[12]
  expression of NP gene in H5N1: significantly reduced
  expression of PA gene in H5N1: significantly reduced
  expression of PB1 gene in H5N1: significantly reduced
  expression of PB2 gene in H5N1: significantly reduced
[15]
  deaths who took Tamiflu that experienced severe illness or death within 12 hours after taking the drug: 38

— patent US11452707B2, “Use of cannabidiol in preparation of drugs for resisting against influenza” (priority 2017, dated 2022)
